#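 Dose response: 5 concentrations. Exposure: 48 h. Format: 96-well plates. Endpoint: linear interpolation; highest concentration if not reached. GI50: concentration for 50% inhibition of growth. TGI: concentration producing complete growth inhibition.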
# Experiments:
# Test in all cases: NCI anticancer screen, dose series, 48 h
# 786-0 renal = system: 786-0 renal
# A549 NSCLC = system: A549 NSCLC
# ACHN renal = system: ACHN renal
# CAKI-1 renal = system: CAKI-1 renal
# CCRF-CEM leukemia = system: CCRF-CEM leukemia
# COLO 205 colon = system: COLO 205 colon
# DLD-1 colon = system: DLD-1 colon
# DMS 114 small cell lung = system: DMS 114 small cell lung
# DMS 273 small cell lung = system: DMS 273 small cell lung
# EKVX NSCLC = system: EKVX NSCLC
# HCC-2998 colon = system: HCC-2998 colon
# HCT-116 colon = system: HCT-116 colon
# HCT-15 colon = system: HCT-15 colon
# HOP-18 NSCLC = system: HOP-18 NSCLC
# HOP-62 NSCLC = system: HOP-62 NSCLC
# HT29 colon = system: HT29 colon
# IGROV1 ovarian = system: IGROV1 ovarian
# K-562 leukemia = system: K-562 leukemia
# KM12 colon = system: KM12 colon
# KM20L2 colon = system: KM20L2 colon
# LOX IMVI melanoma = system: LOX IMVI melanoma
# LXFL 529 NSCLC = system: LXFL 529 NSCLC
# M14 melanoma = system: M14 melanoma
# M19-MEL melanoma = system: M19-MEL melanoma
# MALME-3M melanoma = system: MALME-3M melanoma
# MOLT-4 leukemia = system: MOLT-4 leukemia
# NCI-H226 lung = system: NCI-H226 lung
# NCI-H23 lung = system: NCI-H23 lung
# NCI-H460 lung = system: NCI-H460 lung
# NCI-H522 lung = system: NCI-H522 lung
# OVCAR-3 ovarian = system: OVCAR-3 ovarian
# OVCAR-4 ovarian = system: OVCAR-4 ovarian
# OVCAR-5 ovarian = system: OVCAR-5 ovarian
# OVCAR-8 ovarian = system: OVCAR-8 ovarian
# RPMI-8226 leukemia = system: RPMI-8226 leukemia
# RXF 393 renal = system: RXF 393 renal
# RXF-631 renal = system: RXF-631 renal
# SF-268 CNS = system: SF-268 CNS
# SF-295 CNS = system: SF-295 CNS
# SF-539 CNS = system: SF-539 CNS
# SK-MEL-2 melanoma = system: SK-MEL-2 melanoma
# SK-MEL-28 melanoma = system: SK-MEL-28 melanoma
# SK-MEL-5 melanoma = system: SK-MEL-5 melanoma
# SK-OV-3 ovarian = system: SK-OV-3 ovarian
# SN12C renal = system: SN12C renal
# SNB-19 CNS = system: SNB-19 CNS
# SNB-75 CNS = system: SNB-75 CNS
# SNB-78 CNS = system: SNB-78 CNS
# SW-620 colon = system: SW-620 colon
# TK-10 renal = system: TK-10 renal
# U251 CNS = system: U251 CNS
# UACC-257 melanoma = system: UACC-257 melanoma
# UACC-62 melanoma = system: UACC-62 melanoma
# UO-31 renal = system: UO-31 renal
# XF 498 CNS = system: XF 498 CNS
# A498 renal = system: A498 renal
# HL-60(TB) leukemia = system: HL-60(TB) leukemia
# HOP-92 NSCLC = system: HOP-92 NSCLC
# SR leukemia = system: SR leukemia
compound,measurement,setting,value
Cc1ccc(N=C[N-]c2ccc(C)cc2)cc1.Cc1ccc(N=C[N-]c2ccc(C)cc2)cc1.O=C([O-])C(F)(F)F.O=C([O-])C(F)(F)F.[OH3+].[OH3+].[Rh+2].[Rh+2],GI50,786-0 renal,23.5 µM
same,TGI,786-0 renal,58.5 µM
same,GI50,A549 NSCLC,> 100 µM
same,TGI,A549 NSCLC,> 100 µM
same,GI50,ACHN renal,44.7 µM
same,TGI,ACHN renal,> 100 µM
same,GI50,CAKI-1 renal,> 100 µM
same,TGI,CAKI-1 renal,> 100 µM
same,GI50,CCRF-CEM leukemia,23.2 µM
same,TGI,CCRF-CEM leukemia,55.8 µM
same,GI50,COLO 205 colon,36.3 µM
same,TGI,COLO 205 colon,> 100 µM
same,GI50,DLD-1 colon,56.7 µM
same,TGI,DLD-1 colon,> 100 µM
same,GI50,DMS 114 small cell lung,38.4 µM
same,TGI,DMS 114 small cell lung,> 100 µM
same,GI50,DMS 273 small cell lung,80.2 µM
same,TGI,DMS 273 small cell lung,> 100 µM
same,GI50,EKVX NSCLC,50.2 µM
same,TGI,EKVX NSCLC,> 100 µM
same,GI50,HCC-2998 colon,36.5 µM
same,TGI,HCC-2998 colon,> 100 µM
same,GI50,HCT-116 colon,16.7 µM
same,TGI,HCT-116 colon,35.4 µM
same,GI50,HCT-15 colon,46.1 µM
same,TGI,HCT-15 colon,> 100 µM
same,GI50,HOP-18 NSCLC,27.7 µM
same,TGI,HOP-18 NSCLC,71.4 µM
same,GI50,HOP-62 NSCLC,> 100 µM
same,TGI,HOP-62 NSCLC,> 100 µM
same,GI50,HT29 colon,19.4 µM
same,TGI,HT29 colon,42.1 µM
same,GI50,IGROV1 ovarian,26.6 µM
same,TGI,IGROV1 ovarian,72.2 µM
same,GI50,K-562 leukemia,25.4 µM
same,TGI,K-562 leukemia,67.1 µM
same,GI50,KM12 colon,35 µM
same,TGI,KM12 colon,> 100 µM
same,GI50,KM20L2 colon,39.9 µM
same,TGI,KM20L2 colon,> 100 µM
same,GI50,LOX IMVI melanoma,31.1 µM
same,TGI,LOX IMVI melanoma,> 100 µM
same,GI50,LXFL 529 NSCLC,28.4 µM
same,TGI,LXFL 529 NSCLC,74.2 µM
same,GI50,M14 melanoma,26.2 µM
same,TGI,M14 melanoma,70.3 µM
same,GI50,M19-MEL melanoma,33.3 µM
same,TGI,M19-MEL melanoma,89.4 µM
same,GI50,MALME-3M melanoma,28 µM
same,TGI,MALME-3M melanoma,56.1 µM
same,GI50,MOLT-4 leukemia,19 µM
same,TGI,MOLT-4 leukemia,42.7 µM
same,GI50,NCI-H226 lung,89.6 µM
same,TGI,NCI-H226 lung,> 100 µM
same,GI50,NCI-H23 lung,25.9 µM
same,TGI,NCI-H23 lung,70.3 µM
same,GI50,NCI-H460 lung,> 100 µM
same,TGI,NCI-H460 lung,> 100 µM
same,GI50,NCI-H522 lung,23.4 µM
same,TGI,NCI-H522 lung,53.2 µM
same,GI50,OVCAR-3 ovarian,62 µM
same,TGI,OVCAR-3 ovarian,> 100 µM
same,GI50,OVCAR-4 ovarian,44.6 µM
same,TGI,OVCAR-4 ovarian,> 100 µM
same,GI50,OVCAR-5 ovarian,> 100 µM
same,TGI,OVCAR-5 ovarian,> 100 µM
same,GI50,OVCAR-8 ovarian,35.1 µM
same,TGI,OVCAR-8 ovarian,> 100 µM
same,GI50,RPMI-8226 leukemia,18.9 µM
same,TGI,RPMI-8226 leukemia,40.6 µM
same,GI50,RXF 393 renal,15.1 µM
same,TGI,RXF 393 renal,33.1 µM
same,GI50,RXF-631 renal,> 100 µM
same,TGI,RXF-631 renal,> 100 µM
same,GI50,SF-268 CNS,28.4 µM
same,TGI,SF-268 CNS,81.6 µM
same,GI50,SF-295 CNS,86.8 µM
same,TGI,SF-295 CNS,> 100 µM
same,GI50,SF-539 CNS,26.6 µM
same,TGI,SF-539 CNS,78.7 µM
same,GI50,SK-MEL-2 melanoma,32.6 µM
same,TGI,SK-MEL-2 melanoma,69.8 µM
same,GI50,SK-MEL-28 melanoma,14.1 µM
same,TGI,SK-MEL-28 melanoma,39.2 µM
same,GI50,SK-MEL-5 melanoma,30.7 µM
same,TGI,SK-MEL-5 melanoma,> 100 µM
same,GI50,SK-OV-3 ovarian,> 100 µM
same,TGI,SK-OV-3 ovarian,> 100 µM
same,GI50,SN12C renal,34.9 µM
same,TGI,SN12C renal,> 100 µM
same,GI50,SNB-19 CNS,58.6 µM
same,TGI,SNB-19 CNS,> 100 µM
same,GI50,SNB-75 CNS,16.8 µM
same,TGI,SNB-75 CNS,53.9 µM
same,GI50,SNB-78 CNS,53.3 µM
same,TGI,SNB-78 CNS,> 100 µM
same,GI50,SW-620 colon,31.9 µM
same,TGI,SW-620 colon,> 100 µM
same,GI50,TK-10 renal,50.2 µM
same,TGI,TK-10 renal,> 100 µM
same,GI50,U251 CNS,25.8 µM
same,TGI,U251 CNS,72.3 µM
same,GI50,UACC-257 melanoma,64.7 µM
same,TGI,UACC-257 melanoma,> 100 µM
same,GI50,UACC-62 melanoma,32.4 µM
same,TGI,UACC-62 melanoma,87.9 µM
same,GI50,UO-31 renal,> 100 µM
same,TGI,UO-31 renal,> 100 µM
same,GI50,XF 498 CNS,22.5 µM
same,TGI,XF 498 CNS,59.4 µM
COc1ccc2nc(C(=O)c3ccccc3)c(C)cc2c1,TGI,786-0 renal,38.1 µM
same,TGI,A498 renal,10.3 µM
same,TGI,A549 NSCLC,> 70 µM
same,TGI,ACHN renal,> 100 µM
same,TGI,CAKI-1 renal,> 100 µM
same,TGI,CCRF-CEM leukemia,> 100 µM
same,TGI,COLO 205 colon,> 34.5 µM
same,TGI,DLD-1 colon,> 66.7 µM
same,TGI,DMS 114 small cell lung,20.5 µM
same,TGI,DMS 273 small cell lung,63.5 µM
same,TGI,EKVX NSCLC,> 100 µM
same,TGI,HCC-2998 colon,26.3 µM
same,TGI,HCT-116 colon,> 40.7 µM
same,TGI,HCT-15 colon,> 40.8 µM
same,TGI,HL-60(TB) leukemia,> 100 µM
same,TGI,HOP-18 NSCLC,> 52 µM
same,TGI,HOP-62 NSCLC,37.1 µM
same,TGI,HOP-92 NSCLC,67.1 µM
same,TGI,HT29 colon,11 µM
same,TGI,IGROV1 ovarian,> 73.1 µM
same,TGI,K-562 leukemia,> 100 µM
same,TGI,KM12 colon,> 45.8 µM
same,TGI,KM20L2 colon,11 µM
same,TGI,LOX IMVI melanoma,> 100 µM
same,TGI,LXFL 529 NSCLC,> 100 µM
same,TGI,M14 melanoma,13.4 µM
same,TGI,M19-MEL melanoma,> 37.7 µM
same,TGI,MALME-3M melanoma,> 39.1 µM
same,TGI,MOLT-4 leukemia,> 100 µM
same,TGI,NCI-H226 lung,> 86 µM
same,TGI,NCI-H23 lung,11.1 µM
same,TGI,NCI-H460 lung,> 100 µM
same,TGI,NCI-H522 lung,5.75 µM
same,TGI,OVCAR-3 ovarian,> 24.3 µM
same,TGI,OVCAR-4 ovarian,> 100 µM
same,TGI,OVCAR-5 ovarian,> 100 µM
same,TGI,OVCAR-8 ovarian,> 46.3 µM
same,TGI,RPMI-8226 leukemia,> 100 µM
same,TGI,RXF 393 renal,17.3 µM
same,TGI,RXF-631 renal,> 100 µM
same,TGI,SF-268 CNS,56.3 µM
same,TGI,SF-295 CNS,9.23 µM
same,TGI,SF-539 CNS,13.8 µM
same,TGI,SK-MEL-2 melanoma,> 100 µM
same,TGI,SK-MEL-28 melanoma,> 62.2 µM
same,TGI,SK-MEL-5 melanoma,12.3 µM
same,TGI,SK-OV-3 ovarian,15.8 µM
same,TGI,SN12C renal,> 65.8 µM
same,TGI,SNB-19 CNS,> 100 µM
same,TGI,SNB-75 CNS,14.4 µM
same,TGI,SNB-78 CNS,> 100 µM
same,TGI,SR leukemia,> 100 µM
same,TGI,SW-620 colon,> 37.4 µM
same,TGI,TK-10 renal,76.1 µM
same,TGI,U251 CNS,10.8 µM
same,TGI,UACC-257 melanoma,26.4 µM
same,TGI,UACC-62 melanoma,> 100 µM
same,TGI,UO-31 renal,> 57.7 µM
same,TGI,XF 498 CNS,19.9 µM
